Where a name gives a salt, the structure may show the parent alone. Read-outs that look alike come from different tables or passages of the source.
How the values were obtained:
[1] = Rat liver microsome metabolic stability; format: in vitro ADME; details: SD, pH 7.4, 1 μM compound, 0.5 mg/mL protein, NADPH; for microsomal CLint / microsomal CLint at 1 μM: read-out: Rat liver microsome experiment CLint; for half-life / half-life at 1 μM: read-out: Rat liver microsome experiment t1/2
Protocol: (§1) Microsomal experiments: human liver microsomes: 0.5 mg/mL, Xenotech; rat liver microsomes: 0.5 mg/mL, Xenotech; coenzyme (NADPH/NADH): 1 mM, Sigma Life Science; magnesium chloride: 5 mM, 100 mM phosphate buffer (pH 7.4).
(§2) Preparation of stock solution: powder of Example compounds were precisely weighed and dissolved in DMSO to 5 mM.
(§3) Preparation of phosphate buffer (100 mm, pH7.4): 0.5M pre-formulated potassium dihydrogen phosphate (150 ml) and 0.5M potassium hydrogen phosphate (700 ml) were mixed well. The pH of the mixture was then adjusted to 7.4 with 0.5M potassium hydrogen phosphate solution. The resulting solution was 5-fold diluted with ultrapure water before use, and magnesium chloride was added to the solution, affording a phosphate buffer (100 mm), containing potassium phosphate (100 mM), magnesium chloride (3.3 mM), pH 7.4.
(§4) A NADPH regeneration system solution (containing 6.5 mM NADP, 16.5 mM G-6-P, 3 U/mL G-6-P D, 3.3 mM magnesium chloride) was formulated, which was placed on wet ice before use.
(§5) Preparation of stop solution: 50 ng/mL of propranolol hydrochloride and 200 ng/mL of tolbutamide (internal standard) in acetonitrile. 25057.5 μL of phosphate buffer (pH 7.4) was placed to a 50 mL centrifuge tube, and 812.5 μL human liver microsomes were added to the tube, which were mixed well to give a protein concentration of 0.625 mg/mL liver microsomes diluent. 25057.5 μL of phosphate buffer (pH 7.4) was placed to a 50 ml centrifuge tube, and 812.5 μL SD rat liver microsomes were added to the tube, which were mixed well to give a protein concentration of 0.625 mg/mL liver microsomes diluent.
(§6) Incubation of the sample: the stock solution of the corresponding compounds was diluted to 0.25 mM with 70% acetonitrile in water as a working solution for later use. 398 μL of human liver microsomes dilution or rat liver microsomes dilution was added into 96-well incubation plate (N=2), and 2 μL of 0.25 mM working solution was added to the plate, which were mixed well.
(§7) Metabolic stability assay: 300 μL of pre-chilled stop solution was added to each well of a 96-well deep-well plate and the plate was placed on ice as a stop plate. The 96-well incubation plate and NADPH regeneration system were placed in a 37° C. water bath, shaked at 100 rpm, pre-incubated for 5min. 80 μL of incubation solution was taken from each well of the incubation plate and was added to the stop plate, which were mixed well. 20 μL of NADPH regeneration system solution was supplemented into the mixture to form the 0 min sample. Then 80 μL of NADPH regeneration system solution was added to each well of the incubation plate to initiate the reaction and start timing. The reaction concentration of the corresponding compound was 1 μM, and the protein concentration was 0.5 mg/mL. At 10, 30, and 90 min, 100 μL of the reaction solution was added to the stop plate and vortexed for 3 min to quench the reaction. The stop plate was centrifuged at 5000×g at 4° C. for 10 min. 100 μL of supernatant was taken into a 96-well plate containing 100 μL of distilled water, which were mixed well. LC-MS/MS was used for sample analysis.
(§8) Data analysis: The peak area of the corresponding compounds and internal standard was detected by LC-MS/MS system, and the peak area ratio of compounds to internal standard was calculated. The slope was measured by plotting the natural log of the percentage of the remaining amount of the compounds versus time, and t1/2 and CLint were calculated according to the following formula, where V/M is equal to 1/protein concentration.

[2] = Human liver microsome metabolic stability; format: in vitro ADME; details: pH 7.4, 1 μM compound, 0.5 mg/mL protein, NADPH; for microsomal CLint / microsomal CLint at 1 μM: read-out: Human liver microsome experiment CLint; for half-life / half-life at 1 μM: read-out: Human liver microsome experiment t1/2
Protocol: as §1, §2, §3, §4, §5, §6, §7, §8

HBV = assay: In vitro anti-HBV activity in HepG2.2.15 cells (HBV DNA by quantitative PCR); format: cell-based; details: Hepatitis B virus
Protocol: Experimental method: anti-HBV activity of compounds was detected by Bright-Glo (Promega) luciferase.
Anti-cell viability assay: in vitro anti-hepatitis b virus activity of Example compounds was tested in HepG2.2.15 cells with TDF as a positive control compound. Cells were seeded into a 96-well plate on the first day; the compounds were added to treat the cells on the next day; and a new culture medium containing the compounds was replaced on the fifth day. On the eighth day, the supernatant was collected for DNA extraction. The content of HBV DNA was detected by quantitative PCR. Both test compound and TDF were subjected to a 3-fold serial dilution to get 8 concentration points in duplicate. The final concentration of DMSO in the culture medium was 0.5%. The formula for calculating the percentage of inhibition is as follows: Inhibition rate=(1−copy number of HBV in sample/copy number of HBV in DMSO control group)×100%
EC50 is analyzed by Graphpad Prism software (four parameter logistic equations), wherein I represents EC50≤50 nM, II represents 50 nM≤EC50≤200 nM, III represents 200 nM<EC50≤500 nM, IV represents EC50>500 nM (as shown in Table 1 below).

[3] = Cytotoxicity experiment of the anti-HBV test (Cell-titer Blue); format: cell-based; details: human, six days after treatment
HIV-1 = assay: microbe, parasite or virus in culture; details: Human immunodeficiency virus 1, MT4, 120 h, read-out: HIV activity and cytotoxicity data EC50 (nM)
Protocol: The data was analyzed by GraphPad Prism software, and the curve was fitted and EC50 and CC50 values were calculated. EC50 refers to the effective concentration that inhibits 50% virus production, 50% virus infectivity, or 50% virus-induced cellular effects. CC50 refers to the inhibitory concentration that reduces the cell growth or viability of uninfected cells by 50%.
Compound treatment: the test compounds and the reference compounds were 2-fold diluted with DMSO and added to the cell culture plate. The test compounds and the reference compounds were tested at 8 concentrations in duplicate.
Viral infection and cell treatment: HIV-1 and MT-4 cells were co-incubated at 37° C., in an incubator with 5% CO2 for 1 h. The infected cells were then seeded in a cell culture plate at a certain density. The final concentration of DMSO in the cell culture medium was 0.5%. The cells were incubated at 37° C., in an incubator with 5% CO2 for 5 days. The cells tested in the cytotoxicity assay were uninfected MT-4 cells, and other test conditions were with the same as that of the antiviral activity assay.
The activity assay of the cell: the cell viability was tested by using cell viability assay Reagent CellTiter-glo (Promega). The raw data was used for calculating the anti-HIV-1 activity and cytotoxicity of the Compounds.

[4] = Cytotoxicity in uninfected MT-4 cells (CellTiter-glo); format: cell-based; details: human, read-out: HIV activity and cytotoxicity data CC50; for CC50: 5 days
Protocol: The data was analyzed by GraphPad Prism software, and the curve was fitted and EC50 and CC50 values were calculated. […] CC50 refers to the inhibitory concentration that reduces the cell growth or viability of uninfected cells by 50%.

[5] = relative to TDF; cited from earlier work
[6] = relative to TDF; cited from earlier work; remark: listed apart in the source
[7] = HepG2.2.15 cells, HBV DNA in supernatant on the eighth day, read-out: HBV activity and cytotoxicity data EC50

Compound	microsomal CLint ([1]; microsomes)	half-life ([1]; microsomes)	microsomal CLint ([2]; microsomes)	half-life ([2]; microsomes)	EC50 (HBV; [7])	CC50 [3]	EC50 (HIV-1)	CC50 [4]	microsomal CLint at 1 μM ([1]; rat liver microsomes)	half-life at 1 μM ([1]; rat liver microsomes)	microsomal CLint at 1 μM ([2]; human liver microsomes)	half-life at 1 μM ([2]; human liver microsomes)	CC50 at 6 days ([3]; HepG2.2.15 cells)	CC50 at 5 days [4]	also measured
CCCCCCCCCCCCCCCCOCCCOP(=S)(CO[C@H](C)Cn1cnc2c(N)ncnc21)OCOC(=O)OC(C)C (stereo partly drawn) [Compound T-4, (R)-9-{2-[(hexadecyloxypropyl)(isopropylcarbonatemethyl)thiophosphorylmethoxy]propyl}adenine]	68.5 µL/min/mg	20.2 min	116 µL/min/mg	11.9 min	> 500 nM	> 50000 nM	> 500 nM	> 50000 nM	–	–	–	–	–	–	–
CCCCCCCCCCCCCCCCOCCCOP(O)(=S)CO[C@H](C)Cn1cnc2c(N)ncnc21 (stereo partly shown) [Compound T-1]	5.6 µL/min/mg	249 min	45.6 µL/min/mg	3.04 min	< 50 nM	7000 to 50000 nM	5 to 20 nM	3000 to 10000 nM	–	–	–	–	–	–	–
CCCCCCCCCCCCCCCCOCCCOP(=O)(CO[C@H](C)Cn1cnc2c(N)ncnc21)OCOC(=O)SC(C)C (stereo partly drawn) [Compound T-5, (R)-9-{2-[(hexadecyloxypropyl)(isopropylsulfanylcarbonyloxymethyl)phosphorylmethoxy]propyl}adenine]	–	–	–	–	50 to 200 nM	–	5 to 20 nM	–	56.6 µL/min/mg	24.5 min	42.7 µL/min/mg	32.5 min	> 50000 nM	> 50000 nM	–
CC(=O)SCCOP(=O)(CO[C@H](C)Cn1cnc2c(N)ncnc21)OCOC(=O)OC(C)C (stereo partly drawn) [Compound T-8, (R)-9-{2-[(acetylsulfanylethyl)(isopropylcarbonatemethyl)phosphorylmethoxy]propyl}adenine]	–	–	–	–	200 to 500 nM	–	20 to 100 nM	–	92.7 µL/min/mg	14.9 min	84.1 µL/min/mg	16.5 min	> 50000 nM	10000 to 50000 nM	–
CCCCCCCCCCCCCCCCOCCCOP(=S)(CO[C@H](C)Cn1cnc2c(N)ncnc21)N[C@@H](C)C(=O)OC(C)C (stereo partly shown) [Compound T-6]	9.9 µL/min/mg	140 min	12.9 µL/min/mg	107 min	200 to 500 nM	7000 to 50000 nM	> 500 nM	3000 to 10000 nM	–	–	–	–	–	–	–
CC(C)OC(=O)[C@H](C)NP(=S)(CO[C@H](C)Cn1cnc2c(N)ncnc21)Oc1ccccc1 (stereo partly drawn) [Compound T-3, 9-{(R)-2-[({[(S)-1-(isopropoxycarbonyl)ethyl]amino}phenoxythiophosphoryl)methoxy]lpropyl}adenine]	–	–	–	–	–	–	5 to 20 nM	–	–	–	–	–	–	3000 to 10000 nM	microsomal CLint at 1 μM ([1]; microsomes): 82.5 µL/min/mg; half-life at 1 μM ([1]; microsomes): 16.8 min; microsomal CLint at 1 μM ([2]; microsomes): 285 µL/min/mg; half-life at 1 μM ([2]; microsomes): 4.9 min; EC50 (HBV; HepG2.2.15, read-out: HBV activity and cytotoxicity data EC50 (nM)): 50 to 200 nM; CC50 at 6 days [3]: > 50000 nM
CCCCCCCCCCCCCCCCOCCCOP(=O)(CO[C@H](C)Cn1cnc2c(N)ncnc21)N[C@@H](C)C(=O)SC(C)C (stereo partly shown) [Compound T-7]	–	–	–	–	50 to 200 nM	–	< 5 nM	–	50.8 µL/min/mg	27.3 min	84.4 µL/min/mg	16.4 min	7000 to 50000 nM	3000 to 10000 nM	–
CC(C)OC(=O)[C@H](C)N[P@](=O)(CO[C@H](C)Cn1cnc2c(N)ncnc21)Oc1ccccc1 [TAF, Tenofovir Alafenamide Fumarate]	–	–	–	–	–	–	–	–	–	–	–	–	–	–	concentration of TFV in immune cells metabolized by TAF, higher than that of TDF [5]: 4 times; concentration of TFV in plasma metabolized by TAF, lower than that of TDF [6]: 90%
